According to patent US12599136B2, “Substituted isophthalic acid diamides and their use as herbicides” (Bayer Aktiengesellschaft, priority 2020, dated 2026):

Columns and labels:
Assay type in all cases: in vivo
[1] = tested on: Polygonum convolvulus; test: Post-emergence herbicidal action against POLCO; conditions: visual assessment about 3 weeks after treatment
Protocol: (§1) Seeds of monocotyledonous and dicotyledonous weed and crop plants are laid out in sandy loam soil in wood-fiber pots, covered with soil and cultivated in a greenhouse under good growth conditions. 2 to 3 weeks after sowing, the test plants are treated at the one-leaf stage. The compounds of the invention, formulated in the form of wettable powders (WP) or as emulsion concentrates (EC), are then sprayed onto the green parts of the plants in the form of an aqueous suspension or emulsion at a water application rate equivalent to 600 to 800 l/ha, with addition of 0.2% wetting agent. After the test plants have been left to stand in the greenhouse under optimal growth conditions for about 3 weeks, the action of the preparations is assessed visually in comparison to untreated controls (herbicidal action in percent (%): 100% activity=the plants have died, 0% activity=like control plants). […] The tables below illustrate, in an illustrative manner, the post-emergence herbicidal action of the compounds of the invention, the herbicidal activity being stated in percent.

[2] = tested on: Abutilon theophrasti; test: Pre-emergence herbicidal action against ABUTH; conditions: for Pre-emergence action against ABUTH: visual score after 3 weeks vs untreated controls
In short: (§2)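 Sandy loam pots, seeds covered with soil, then surface-treated with WP or EC formulations at 600–800 l/ha water plus 0.2% wetting agent. Greenhouse, 3 weeks. Percent damage vs untreated controls.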

[3] = tested on: Setaria viridis; test: Pre-emergence herbicidal action against SETVI
In short: as §2

[4] = tested on: Alopecurus myosuroides; test: Pre-emergence herbicidal action against ALOMY; conditions: for Pre-emergence action against ALOMY: visual score after 3 weeks vs untreated controls
In short: as §2

[5] = tested on: Alopecurus myosuroides; test: Post-emergence herbicidal action against ALOMY
In short: (§3)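 Herbicidal action is a visual percentage rating (0% = as untreated control, 100% = plants dead) made roughly 3 weeks after treatment. Plants were grown in sandy loam in the greenhouse and treated at the one-leaf stage, 2 to 3 weeks post-sowing. Treatment was a foliar spray of wettable-powder or emulsion-concentrate formulations at 600 to 800 l/ha water plus 0.2% wetting agent.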

[6] = tested on: Stellaria media; test: Pre-emergence herbicidal action against STEME
In short: as §2

[7] = tested on: Abutilon theophrasti; test: Post-emergence herbicidal action against ABUTH
In short: as §3

[8] = tested on: Setaria viridis; test: Post-emergence herbicidal action against SETVI; conditions: for Post-emergence action against SETVI in %: visual assessment about 3 weeks after treatment
In short: as §3

[9] = tested on: Amaranthus retroflexus; test: Post-emergence herbicidal action against AMARE; conditions: visual assessment about 3 weeks after treatment
In short: as §3

[10] = tested on: Echinochloa crus-galli; test: Post-emergence herbicidal action against ECHCG; conditions: visual assessment about 3 weeks after treatment
In short: as §3

[11] = tested on: Viola tricolor; test: Pre-emergence herbicidal action against VIOTR
In short: as §2

[12] = tested on: Veronica persica; test: Pre-emergence herbicidal action against VERPE
In short: as §2

[13] = tested on: Avena fatua; test: Post-emergence herbicidal action against AVEFA; conditions: for Post-emergence action against AVEFA in %: visual assessment about 3 weeks after treatment
In short: as §3

[14] = tested on: Matricaria inodora; test: Pre-emergence herbicidal action against MATIN; conditions: for Pre-emergence action against MATIN: visual score after 3 weeks vs untreated controls
In short: as §2

[15] = tested on: Matricaria inodora; test: Post-emergence herbicidal action against MATIN; conditions: for Post-emergence action against MATIN in %: visual assessment about 3 weeks after treatment
In short: as §3

[16] = tested on: Polygonum convolvulus; test: Pre-emergence herbicidal action against POLCO
In short: as §2

[17] = tested on: Avena fatua; test: Pre-emergence herbicidal action against AVEFA; conditions: for Pre-emergence action against AVEFA: visual score after 3 weeks vs untreated controls
In short: as §2

[18] = tested on: Viola tricolor; test: Post-emergence herbicidal action against VIOTR
In short: as §3

[19] = tested on: Veronica persica; test: Post-emergence herbicidal action against VERPE; conditions: visual assessment about 3 weeks after treatment
In short: as §3

[20] = tested on: Echinochloa crus-galli; test: Pre-emergence herbicidal action against ECHCG; conditions: for Pre-emergence action against ECHCG: visual score after 3 weeks vs untreated controls
In short: as §2

[21] = tested on: Pharbitis purpurea; test: Post-emergence herbicidal action against PHBPU; conditions: for Post-emergence action against PHBPU in %: visual assessment about 3 weeks after treatment
In short: as §3

[22] = tested on: Cyperus esculentus; test: Pre-emergence herbicidal action against CYPES; conditions: visual score after 3 weeks vs untreated controls
In short: as §2

[23] = tested on: Stellaria media; test: Post-emergence herbicidal action against STEME; conditions: visual assessment about 3 weeks after treatment
In short: as §3

[24] = tested on: Pharbitis purpurea; test: Pre-emergence herbicidal action against PHBPU; conditions: visual score after 3 weeks vs untreated controls
In short: as §2

[25] = tested on: Cyperus esculentus; test: Post-emergence herbicidal action against CYPES; conditions: visual assessment about 3 weeks after treatment
Protocol: as §1

[26] = tested on: Amaranthus retroflexus; test: Pre-emergence herbicidal action against AMARE; conditions: visual score after 3 weeks vs untreated controls
In short: as §2

[27] = tested on: Digitaria sanguinalis; test: Post-emergence herbicidal action against DIGSA
In short: as §3

[28] = tested on: Digitaria sanguinalis; test: Pre-emergence herbicidal action against DIGSA
In short: as §2

[29] = tested on: Lolium rigidum; test: Pre-emergence herbicidal action against LOLRI; conditions: 80 g/ha
In short: as §2

[30] = comparative experiment, pre-emergence, 20 g a.i./ha
[31] = comparative experiment, 5 g a.i./ha

SMILES: CCCn1nnnc1NC(=O)c1ccc(C(F)(F)F)c(C(=O)N2CCCC2)c1Cl [Example 3-152]
- Post-emergence action against POLCO in % ([1]; 20 g/ha): 90%
- Post-emergence action against POLCO in % ([1]; 80 g/ha): 90%
- Pre-emergence action against ABUTH ([2]; 20 g/ha): 100%
- Pre-emergence action against ABUTH ([2]; 80 g/ha): 100%
- Pre-emergence action against ABUTH ([2]; Dosage column 320 g/ha (heading prints 3200 g/ha)): 100%
- Pre-emergence action against SETVI ([3]; 320 g/ha): 100%
- Pre-emergence action against ALOMY ([4]; 320 g/ha): 80%
- Post-emergence action against ALOMY ([5]; 80 g/ha): 80%
- Pre-emergence action against STEME ([6]; 20 g/ha): 100%
- Pre-emergence action against STEME ([6]; 80 g/ha): 100%
- Pre-emergence action against STEME ([6]; 320 g/ha): 100%
- Post-emergence action against ABUTH ([7]; 5 g/ha): 90%
- Post-emergence action against ABUTH ([7]; 20 g/ha): 100%
- Post-emergence action against ABUTH ([7]; 80 g/ha): 100%
- Post-emergence action against SETVI in % ([8]; 80 g/ha): 100%
- Post-emergence action against AMARE in % ([9]; 5 g/ha): 100%
- Post-emergence action against AMARE in % ([9]; 20 g/ha): 100%
- Post-emergence action against AMARE in % ([9]; 80 g/ha): 100%
- Post-emergence action against ECHCG in % ([10]; 20 g/ha): 80%
- Post-emergence action against ECHCG in % ([10]; 80 g/ha): 100%
- Pre-emergence action against VIOTR ([11]; 80 g/ha): 90%
- Pre-emergence action against VIOTR ([11]; 320 g/ha): 90%
- Pre-emergence action against VERPE ([12]; 320 g/ha): 100%
- Post-emergence action against AVEFA in % ([13]; 80 g/ha): 100%
- Pre-emergence action against MATIN ([14]; 20 g/ha): 80%
- Pre-emergence action against MATIN ([14]; 80 g/ha): 100%
- Pre-emergence action against MATIN ([14]; 320 g/ha): 100%
- Post-emergence action against MATIN in % ([15]; 80 g/ha): 90%
- Pre-emergence action against POLCO ([16]; 80 g/ha): 80%
- Pre-emergence action against POLCO ([16]; 320 g/ha): 90%
- Pre-emergence action against AVEFA ([17]; 320 g/ha): 100%
- Post-emergence action against VIOTR in % ([18]; 80 g/ha): 80%
- Post-emergence action against VERPE in % ([19]; 80 g/ha): 80%
- Pre-emergence action against ECHCG ([20]; 80 g/ha): 80%
- Pre-emergence action against ECHCG ([20]; 320 g/ha): 100%
- Post-emergence action against PHBPU in % ([21]; 20 g/ha): 80%
- Post-emergence action against PHBPU in % ([21]; 80 g/ha): 100%
- Pre-emergence action against CYPES ([22]; 80 g/ha): 80%
- Pre-emergence action against CYPES ([22]; 320 g/ha): 90%
- Post-emergence action against STEME in % ([23]; 5 g/ha): 80%
- Post-emergence action against STEME in % ([23]; 20 g/ha): 80%
- Post-emergence action against STEME in % ([23]; 80 g/ha): 90%
- Pre-emergence action against PHBPU ([24]; 320 g/ha): 100%
- Post-emergence action against CYPES in % ([25]; 20 g/ha): 80%
- Post-emergence action against CYPES in % ([25]; 80 g/ha): 80%
- Pre-emergence action against AMARE ([26]; 20 g/ha): 100%
- Pre-emergence action against AMARE ([26]; 80 g/ha): 100%
- Pre-emergence action against AMARE ([26]; 320 g/ha): 100%

SMILES: CCn1nnnc1NC(=O)c1ccc(C(F)F)c(C(=O)N(C)C)c1Cl [Example 2-154]
- Post-emergence action against POLCO in % ([1]; 20 g/ha): 90%
- Post-emergence action against DIGSA in % ([27]; 5 g/ha): 90%
- Post-emergence action against DIGSA in % ([27]; 20 g/ha): 90%
- Pre-emergence action against ABUTH ([2]; 20 g/ha): 100%
- Pre-emergence action against ABUTH ([2]; 80 g/ha): 100%
- Herbicidal action against ABUTH [2, 30]: 100
- Pre-emergence action against SETVI ([3]; 20 g/ha): 100%
- Pre-emergence action against SETVI ([3]; 80 g/ha): 100%
- Herbicidal action against SETVI ([3]; comparative experiment, 20 g a.i./ha): 100
- Pre-emergence action against ALOMY ([4]; 20 g/ha): 80%
- Pre-emergence action against ALOMY ([4]; 80 g/ha): 100%
- Herbicidal action against ALOMY [4, 30]: 80
- Post-emergence action against ALOMY ([5]; 5 g/ha): 90%
- Post-emergence action against ALOMY ([5]; 20 g/ha): 90%
- Herbicidal action against ALOMY [5, 31]: 90
- Post-emergence action against ABUTH ([7]; 5 g/ha): 100%
- Post-emergence action against ABUTH ([7]; 20 g/ha): 100%
- Post-emergence action against SETVI in % ([8]; 5 g/ha): 90%
- Post-emergence action against SETVI in % ([8]; 20 g/ha): 100%
- Herbicidal action against SETVI [8, 31]: 90
- Post-emergence action against AMARE in % ([9]; 5 g/ha): 90%
- Post-emergence action against AMARE in % ([9]; 20 g/ha): 100%
- Pre-emergence action against DIGSA ([28]; 20 g/ha): 100%
- Pre-emergence action against DIGSA ([28]; 80 g/ha): 100%
- Post-emergence action against ECHCG in % ([10]; 5 g/ha): 80%
- Post-emergence action against ECHCG in % ([10]; 20 g/ha): 90%
- Pre-emergence action against VIOTR ([11]; 20 g/ha): 90%
- Pre-emergence action against VIOTR ([11]; 80 g/ha): 100%
- Pre-emergence action against VERPE ([12]; 80 g/ha): 90%
- Post-emergence action against AVEFA in % ([13]; 5 g/ha): 80%
- Post-emergence action against AVEFA in % ([13]; 20 g/ha): 100%
- Herbicidal action against AVEFA [13, 31]: 80
- Pre-emergence action against MATIN ([14]; 20 g/ha): 90%
- Pre-emergence action against MATIN ([14]; 80 g/ha): 100%
- Herbicidal action against MATIN [14, 30]: 90
- Post-emergence action against MATIN in % ([15]; 5 g/ha): 80%
- Post-emergence action against MATIN in % ([15]; 20 g/ha): 90%
- Herbicidal action against MATIN [15, 31]: 80
- Pre-emergence action against POLCO ([16]; 80 g/ha): 80%
- Pre-emergence action against AVEFA ([17]; 20 g/ha): 80%
- Pre-emergence action against AVEFA ([17]; 80 g/ha): 100%
- Herbicidal action against AVEFA [17, 30]: 80
- Post-emergence action against VIOTR in % ([18]; 5 g/ha): 90%
- Post-emergence action against VIOTR in % ([18]; 20 g/ha): 100%
- Herbicidal action against VIOTR [18, 31]: 80
- Post-emergence action against VERPE in % ([19]; 5 g/ha): 80%
- Post-emergence action against VERPE in % ([19]; 20 g/ha): 90%
- Pre-emergence action against ECHCG ([20]; 20 g/ha): 80%
- Pre-emergence action against ECHCG ([20]; 80 g/ha): 100%
- Herbicidal action against ECHCG [20, 30]: 80
- Pre-emergence action against LOLRI [29]: 80%
- Post-emergence action against PHBPU in % ([21]; 20 g/ha): 80%
- Herbicidal action against PHBPU [21, 31]: 70
- Pre-emergence action against PHBPU ([24]; 80 g/ha): 80%
- Pre-emergence action against AMARE ([26]; 20 g/ha): 100%
- Pre-emergence action against AMARE ([26]; 80 g/ha): 100%
